In assay [1] the target is T1, Itk (Homo sapiens, UniProt Q08881).
T1 sequence (Q08881 1-620): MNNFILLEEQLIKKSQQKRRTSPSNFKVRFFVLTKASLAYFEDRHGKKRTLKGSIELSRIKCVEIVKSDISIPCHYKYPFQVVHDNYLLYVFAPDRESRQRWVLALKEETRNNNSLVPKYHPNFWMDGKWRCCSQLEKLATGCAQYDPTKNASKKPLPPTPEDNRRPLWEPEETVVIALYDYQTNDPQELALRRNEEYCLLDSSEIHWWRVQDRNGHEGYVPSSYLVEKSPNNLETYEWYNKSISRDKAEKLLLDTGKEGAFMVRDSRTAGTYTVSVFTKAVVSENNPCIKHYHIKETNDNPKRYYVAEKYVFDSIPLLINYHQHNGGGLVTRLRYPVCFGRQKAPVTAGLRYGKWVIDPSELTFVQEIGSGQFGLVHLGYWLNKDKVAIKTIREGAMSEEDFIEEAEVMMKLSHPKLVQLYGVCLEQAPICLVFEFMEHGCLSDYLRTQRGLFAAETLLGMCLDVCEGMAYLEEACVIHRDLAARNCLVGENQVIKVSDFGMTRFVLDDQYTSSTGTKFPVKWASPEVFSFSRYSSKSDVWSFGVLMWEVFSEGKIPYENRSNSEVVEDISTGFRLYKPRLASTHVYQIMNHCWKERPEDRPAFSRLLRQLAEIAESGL
The assay is described as follows: ITK Inhibition Assay (Radiometric), radioactive-phosphate incorporation. The format is biochemical. Conditions: enzyme inhibition data (Ki), Table 11; radiometric or UV assay not stated. Put shortly:
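Radiometric 33P incorporation into SAM68 peptide (D332-443) with filter capture and scintillation counting; 10 min pre-incubation then 10 min reaction at 25° C. IC50 format: 30 nM Itk, 15 μM ATP, 2 μM peptide, HEPES pH 7.5. Ki(app) format: 50 nM Itk, 7.5 μM ATP, 3 μM peptide, MOPS pH 7.0.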

The target of assay [2] is T2, JAK3 (Homo sapiens, UniProt P52333).
T2 sequence (P52333 1-1124): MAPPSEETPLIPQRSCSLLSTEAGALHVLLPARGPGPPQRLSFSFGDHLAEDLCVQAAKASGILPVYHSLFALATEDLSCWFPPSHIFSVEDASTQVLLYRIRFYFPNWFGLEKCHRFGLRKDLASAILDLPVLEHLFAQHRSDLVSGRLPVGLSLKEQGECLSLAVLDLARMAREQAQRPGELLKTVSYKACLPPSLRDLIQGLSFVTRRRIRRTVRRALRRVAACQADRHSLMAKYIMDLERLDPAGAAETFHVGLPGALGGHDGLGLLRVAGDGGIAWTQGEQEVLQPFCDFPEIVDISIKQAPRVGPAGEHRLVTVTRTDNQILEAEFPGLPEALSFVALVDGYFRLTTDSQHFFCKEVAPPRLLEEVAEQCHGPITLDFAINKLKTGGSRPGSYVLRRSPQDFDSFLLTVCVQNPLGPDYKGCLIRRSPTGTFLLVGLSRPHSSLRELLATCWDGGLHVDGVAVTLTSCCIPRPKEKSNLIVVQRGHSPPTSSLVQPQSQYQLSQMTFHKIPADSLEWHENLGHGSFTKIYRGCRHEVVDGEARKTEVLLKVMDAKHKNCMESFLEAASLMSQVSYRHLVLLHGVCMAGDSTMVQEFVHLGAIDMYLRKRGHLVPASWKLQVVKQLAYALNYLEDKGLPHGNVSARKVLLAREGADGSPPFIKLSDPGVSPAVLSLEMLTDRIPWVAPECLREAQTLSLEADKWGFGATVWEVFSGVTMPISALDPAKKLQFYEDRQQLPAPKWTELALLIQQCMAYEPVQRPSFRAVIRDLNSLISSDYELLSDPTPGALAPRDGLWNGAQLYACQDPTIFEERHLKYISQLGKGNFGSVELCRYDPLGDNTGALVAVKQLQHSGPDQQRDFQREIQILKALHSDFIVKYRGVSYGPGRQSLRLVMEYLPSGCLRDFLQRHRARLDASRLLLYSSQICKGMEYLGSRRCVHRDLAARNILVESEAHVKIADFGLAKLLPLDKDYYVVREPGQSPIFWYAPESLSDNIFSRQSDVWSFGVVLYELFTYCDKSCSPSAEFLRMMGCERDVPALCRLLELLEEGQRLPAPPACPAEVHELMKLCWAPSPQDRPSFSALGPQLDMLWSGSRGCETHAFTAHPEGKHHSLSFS
The assay is described as follows: JAK3 Inhibition Assay, 33P incorporation. Format: biochemical. Conditions: enzyme inhibition data (Ki), Table 11. The essentials:
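33P incorporation into 1 μM poly(Glu)4Tyr was counted after TCA stop and glass fiber filtration. The 20 min reaction ran at 25 °C with 1 nM JAK3 and 5 μM ATP (200 uCi/μmole). Buffer was 100 mM HEPES pH 7.4, 10 mM MgCl2, 25 mM NaCl, 1 mM DTT, 0.01% BSA.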

As usually defined, the Ki is the equilibrium dissociation constant of an inhibitor or competing ligand from its target.

As for `COc1ccc(-c2cnc3c(C#N)c(N)nn3c2)cc1` [Compound V-2], the Ki in assay [1] is 500 to 5000 nM; in assay [2], > 5000 nM.

For `COc1ccncc1-c1cnc2c(-c3ccccn3)c(N)nn2c1` [Compound V-22], the inhibition constant Ki in assay [1] was 500 to 5000 nM; in assay [2], > 5000 nM.

On to `CCOC(=O)c1c(N)nn2cc(-c3ccc(Cl)cc3)cnc12` [Compound V-24], for which the inhibitory constant (Ki) is 500 to 5000 nM in assay [1] and > 5000 nM in assay [2].

For `CCN(C(=O)c1c(N)nn2cc(-c3ccncn3)cnc12)C(C)C` [Compound V-33], the Ki in assay [1] was 500 to 5000 nM; in assay [2], > 5000 nM.

Consider `CC(C)N1CCN(c2ccc(-c3cnc4c(-c5ccccn5)c(N)nn4c3)cc2)CC1` [Compound V-51], for which the Ki is < 500 nM in assay [1] and 500 to 5000 nM in assay [2].

Turning to `CN(C)CCNC(=O)c1cccc(-c2cnc3c(-c4ccccn4)c(N)nn3c2)c1` [Compound V-54], the results for the Ki in assay [1] and in assay [2] were 500 to 5000 nM and > 5000 nM, respectively.

Turning to `CN1CCN(C(=O)c2cccc(-c3cnc4c(-c5ccccn5)c(N)nn4c3)c2)CC1` [Compound V-55], the inhibition constant Ki in assay [1] is 500 to 5000 nM; in assay [2], > 5000 nM.

For the compound `Nc1nn2cc(N3CCOCC3)cnc2c1-c1ccccn1` [Compound V-57], the Ki is 500 to 5000 nM in assay [1] and > 5000 nM in assay [2].

Regarding `CCN(CCN)C(=O)c1ccc(-c2cnc3c(-c4ccccn4)c(N)nn3c2)nc1` [Compound V-62], the Ki in assay [1] was < 500 nM; in assay [2], 500 to 5000 nM.

For the compound `CCN1CCN(C(=O)c2ccc(-c3cnc4c(-c5ccccn5)c(N)nn4c3)nc2)CC1` [Compound V-63], the results for the Ki in assay [1] and in assay [2] were < 500 nM and 500 to 5000 nM, respectively.

With `COC(=O)N1CCN(C(=O)c2ccc(-c3cnc4c(-c5ccccn5)c(N)nn4c3)nc2)CC1` [Compound V-64], the figures for the inhibition constant Ki in assay [1] and in assay [2] were < 500 nM and 500 to 5000 nM, respectively.

As for `CN(C)CCNC(=O)c1ccc(-c2cnc3c(-c4ccccn4)c(N)nn3c2)nc1` [Compound V-65], the Ki was < 500 nM in assay [1] and 500 to 5000 nM in assay [2].

Consider `CC(C)N(C)C(=O)c1ccc(-c2cnc3c(-c4ccccn4)c(N)nn3c2)nc1` [Compound V-67], for which the Ki in assay [1] and in assay [2] was 500 to 5000 nM each time.

Turning to `COCCN1CCN(C(=O)c2ccc(-c3cnc4c(-c5ccccn5)c(N)nn4c3)nc2)CC1` [Compound V-68], the Ki in assay [1] was < 500 nM; in assay [2], 500 to 5000 nM.

As for `CN1CCCN(C(=O)c2ccc(-c3cnc4c(-c5ccccn5)c(N)nn4c3)nc2)CC1` [Compound V-70], the inhibition constant (Ki) in assay [1] is < 500 nM; in assay [2], 500 to 5000 nM.

In the case of `Nc1nn2cc(-c3ccc(C(=O)N4CCCC(CO)C4)cn3)cnc2c1-c1ccccn1` (stereo not shown) [Compound V-71], the Ki in assay [1] is < 500 nM; in assay [2], 500 to 5000 nM.

`C#CCN(C)C(=O)c1ccc(-c2cnc3c(-c4ccccn4)c(N)nn3c2)nc1` [Compound V-72]: the Ki in assay [1] is < 500 nM; in assay [2], 500 to 5000 nM.

On to `Nc1nn2cc(-c3ccc(C(=O)NCCF)cn3)cnc2c1-c1ccccn1` [Compound V-73], for which the inhibitory constant (Ki) in assay [1] is 500 to 5000 nM; in assay [2] it was > 5000 nM.

`CCN(CCCCN)C(=O)c1ccc(-c2cnc3c(-c4ccccn4)c(N)nn3c2)nc1` [Compound V-74]: the Ki in assay [1] is < 500 nM; in assay [2], 500 to 5000 nM.

As for `COCCN(C)C(=O)c1ccc(-c2cnc3c(-c4ccccn4)c(N)nn3c2)nc1` [Compound V-75], the inhibition constant (Ki) in assay [1] is 500 to 5000 nM; in assay [2], > 5000 nM.

Turning to `CCOC(=O)N1CCN(C(=O)c2ccc(-c3cnc4c(-c5ccccn5)c(N)nn4c3)nc2)CC1` [Compound V-76], the figures for the Ki in assay [1] and in assay [2] were < 500 nM and 500 to 5000 nM, respectively.

For `CCN1CCN(C(=O)c2ccc(-c3cnc4c(-c5ccccn5)c(N)nn4c3)nc2)C(O)C1` (stereo not shown) [Compound V-78], the inhibition constant Ki was < 500 nM in assay [1] and 500 to 5000 nM in assay [2].

Take `Nc1nn2cc(-c3ccc(C(=O)N4CCC[C@@H](O)C4)cn3)cnc2c1-c1ccccn1` [Compound V-79]: the Ki is < 500 nM in assay [1] and 500 to 5000 nM in assay [2].

As for `Nc1nn2cc(-c3ccc(C(=O)N4CCC(N)C4)cn3)cnc2c1-c1ccccn1` (stereo not shown) [Compound V-81], the results for the inhibition constant (Ki) in assay [1] and in assay [2] were < 500 nM and 500 to 5000 nM, respectively.

For `Nc1nn2cc(-c3ccc(C(=O)N4CCCCC4CCO)cn3)cnc2c1-c1ccccn1` (stereo not shown) [Compound V-82], the results for the Ki in assay [1] and in assay [2] were < 500 nM and > 5000 nM, respectively.

Turning to `Nc1nn2cc(-c3ccc(C(=O)N4CCC(CCO)CC4)cn3)cnc2c1-c1ccccn1` [Compound V-83], the Ki was < 500 nM in assay [1] and 500 to 5000 nM in assay [2].

With `CCCN(CCCN)C(=O)c1ccc(-c2cnc3c(-c4ccccn4)c(N)nn3c2)nc1` [Compound V-85], the inhibition constant Ki is < 500 nM in assay [1] and 500 to 5000 nM in assay [2].

With `Nc1nn2cc(-c3ccc(C(=O)N4CCC4)cn3)cnc2c1-c1ccccn1` [Compound V-86], the inhibition constant (Ki) in assay [1] is 500 to 5000 nM; in assay [2], > 5000 nM.

In the case of `Nc1nn2cc(-c3ccc(C(=O)N4CCSCC4)cn3)cnc2c1-c1ccccn1` [Compound V-87], the Ki in assay [1] is < 500 nM; in assay [2] it was 500 to 5000 nM.

As to `CCN(C)C(=O)c1ccc(-c2cnc3c(-c4ccccn4)c(N)nn3c2)nc1` [Compound V-89], the Ki is < 500 nM in assay [1] and 500 to 5000 nM in assay [2].

`CCN(CCC#N)C(=O)c1ccc(-c2cnc3c(-c4ccccn4)c(N)nn3c2)nc1` [Compound V-90]: the figures for the Ki in assay [1] and in assay [2] were < 500 nM and 500 to 5000 nM, respectively.

Take `CCCN(CCO)C(=O)c1ccc(-c2cnc3c(-c4ccccn4)c(N)nn3c2)nc1` [Compound V-92]: the Ki in assay [1] was < 500 nM; in assay [2], 500 to 5000 nM.

For the compound `Nc1nn2cc(-c3ccc(C(=O)N4CCC[C@@H]4CO)cn3)cnc2c1-c1ccccn1` [Compound V-93], the figures for the inhibition constant (Ki) in assay [1] and in assay [2] were < 500 nM and 500 to 5000 nM, respectively.

As for `CN(CCN)C(=O)c1ccc(-c2cnc3c(-c4ccccn4)c(N)nn3c2)nc1` [Compound V-94], the inhibition constant (Ki) in assay [1] was < 500 nM; in assay [2] it was > 5000 nM.

On to `Cc1cnc2c(-c3cc(NC(C)C)ncn3)c(N)nn2c1` [Compound V-273], for which the Ki in assay [1] and in assay [2] was 500 to 5000 nM in each case.

For `COc1ccccc1Nc1cc(-c2c(N)nn3cc(C)cnc23)ncn1` [Compound V-274], the figures for the inhibitory constant (Ki) in assay [1] and in assay [2] were < 500 nM and 500 to 5000 nM, respectively.

For `Cc1cnc2c(-c3cc(N4CCCCC4)ncn3)c(N)nn2c1` [Compound V-276], the values for the Ki in assay [1] and in assay [2] were < 500 nM and 500 to 5000 nM, respectively.

Consider `Cc1cnc2c(-c3cc(NCC4CC4)ncn3)c(N)nn2c1` [Compound V-277], for which the Ki in assay [1] and in assay [2] was 500 to 5000 nM in each case.

For the compound `Cc1cnc2c(-c3cc(NCC4CCCO4)ncn3)c(N)nn2c1` (stereo not shown) [Compound V-278], the Ki in assay [1] and in assay [2] was 500 to 5000 nM throughout.

`Cc1cnc2c(-c3cc(Nc4ccccc4)ncn3)c(N)nn2c1` [Compound V-279]: the Ki in assay [1] and in assay [2] was < 500 nM in each case.

For the compound `Nc1nn2cc(Cl)cnc2c1-c1ccccn1` [Compound V-280], the Ki in assay [1] was 500 to 5000 nM; in assay [2], > 5000 nM.

Source of the values: patent US7528138B2, “Pyrazolo[1,5-a]pyrimidines useful as inhibitors of protein kinases” (Vertex Pharmaceuticals Incorporated, priority 2004, dated 2009).
